From US10413593B2 (priority 2014, dated 2019)
*1 amine or outer side, *2 acyl side, *3 side chain or, on linkers, in order; H or OH if unused. Where a SMILES comes first, the peptide text is derived from it. Where no end group is shown, it is not given here. Side-chain parts run from the residue outwards. [ ]: non-standard residue; d: D form. The star is where a group is joined. C16 = palmitoyl, CCCCCCCCCCCCCCCC(=O)*; γGlu = O=C(O)[C@H](CCC(=O)[*:2])N[*:1]; X1 = O=C(C(N[*:1])C(O)c1ccccc1)[*:2]; Palmitoyl = CCCCCCCCCCCCCCCC(=O)*

How the values were obtained:
human GCGR = biological target: T1, human GCGR (Homo sapiens, UniProt P47871); assay: cAMP assay in cells expressing human GCGR (HitHunter cAMP XS); assay type: cell-based; conditions: for hGCGR/hGLP1R (hTone): ratio of EC50 at human GCGR to EC50 at human GLP1R; for EC50: cAMP production, cells expressing human GCGR, assay buffer with 20% human serum, 1 hour
T1 construct: expressed in transfected cells
T1 sequence (P47871 26-477): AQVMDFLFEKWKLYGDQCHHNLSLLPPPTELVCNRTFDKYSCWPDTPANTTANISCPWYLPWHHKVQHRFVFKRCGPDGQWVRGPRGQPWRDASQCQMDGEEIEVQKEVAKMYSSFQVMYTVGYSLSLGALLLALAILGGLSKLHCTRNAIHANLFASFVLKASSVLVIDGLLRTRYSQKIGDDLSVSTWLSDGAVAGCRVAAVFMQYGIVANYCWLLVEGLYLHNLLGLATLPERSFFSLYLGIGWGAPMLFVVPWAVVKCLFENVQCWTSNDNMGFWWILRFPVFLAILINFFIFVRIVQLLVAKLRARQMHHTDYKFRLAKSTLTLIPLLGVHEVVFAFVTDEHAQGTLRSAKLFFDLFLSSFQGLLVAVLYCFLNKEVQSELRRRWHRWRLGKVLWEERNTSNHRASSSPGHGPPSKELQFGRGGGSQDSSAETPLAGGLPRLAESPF
Protocol: The cAMP protocol was as follows.
(§1) Peptides were dissolved in 100% DMSO and serially diluted to generate 11 point titrations. The peptide solutions were then transferred into 384-well assay plates (150 nL/well). Assay ready frozen cells expressing human GLP-1R or human GCGR were suspended in growth media consisting of DMEM/F12 medium (GIBCO), 10% FBS (GIBCO), lx P/S (GIBCO), 800 μg/mL Geneticin (GIBCO), and 300 μg/mL Hygromycin (Invitrogen). Cells were then diluted in assay buffer consisting of PBS (GIBCO), 7.5% BSA (Perkin Elmer), 100 μM RO 20-1724 (Sigma), and 20% human serum (MP Biomedical). The cell suspensions (15 μL) were then added to the assay plates containing the peptide solutions (30,000 cells/well for human GCGR; 20,000 cells/well for GLP1R). The cells were incubated for 1 hour at room temperature in the dark. Production of cAMP was determined using HitHunter™ cAMPXS kits (DiscoverX). ED buffer (20 μL) was then added to each well and the plates were incubated for 1 hour at room temperature in the dark. Subsequently, EA buffer (20 μL) was added to each well, and the plates were incubated for 1-18 hours at room temperature in the dark. Luminescence was measured using an EnVision Multilabel plate reader (Perkin Elmer). EC50 values were calculated using ADA data analyzer software.

human GLP-1R = biological target: T2, human GLP-1R (Homo sapiens, UniProt P43220); assay: cAMP assay in cells expressing human GLP-1R (HitHunter cAMP XS); assay type: cell-based; conditions: cAMP production, assay buffer with 20% human serum, 1 hour, read-out: GLPR1 EC50 (nM) human
T2 construct: expressed in transfected cells
T2 sequence (P43220 24-463): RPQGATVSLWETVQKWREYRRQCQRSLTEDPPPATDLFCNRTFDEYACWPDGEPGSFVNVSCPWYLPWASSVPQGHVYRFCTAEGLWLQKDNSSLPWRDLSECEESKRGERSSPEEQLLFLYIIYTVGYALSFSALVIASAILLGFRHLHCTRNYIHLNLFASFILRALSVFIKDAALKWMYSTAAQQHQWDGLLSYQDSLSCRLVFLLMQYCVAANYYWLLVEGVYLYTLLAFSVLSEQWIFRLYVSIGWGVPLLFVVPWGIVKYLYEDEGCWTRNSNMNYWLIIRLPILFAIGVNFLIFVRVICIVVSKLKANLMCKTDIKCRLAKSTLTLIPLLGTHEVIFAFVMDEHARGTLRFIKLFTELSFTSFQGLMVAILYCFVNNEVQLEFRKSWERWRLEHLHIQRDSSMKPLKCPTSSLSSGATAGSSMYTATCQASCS
Protocol: The cAMP protocol was as follows.
as §1

[1] = Second study in DIO mice: body weight change percent relative to vehicle (Example 19, FIG. 2); assay type: in vivo, mice (strain C57Bl6/NTac); conditions: eight days
Protocol: In addition, the peptide of SEQ ID NO: 8 was administered at 15 nmol/kg, while the peptide of SEQ ID NOs: 10 and 11 were administered at 3 nmol/kg. Body weight was measured daily for eight days and body weight change is expressed as percent relative to vehicle (FIG. 2).

[2] = Ambient glucose in DIO mice (Example 21, FIG. 4); assay type: in vivo, mice (strain C57Bl6/NTac); conditions: for change in ambient glucose compared to vehicle: day 9 of dosing
Protocol: In addition to cumulative body weight change, ambient glucose levels of the DIO mice (strain C57Bl6/NTac) were measured periodically throughout the study.

[3] = Cumulative body weight change in DIO mice, daily s.c. dosing for nine days (Example 18, FIG. 1); assay type: in vivo, mice (strain C57Bl6/NTac); conditions: 9 nmol/kg s.c. daily, day 9
Protocol: Mice were administered a vehicle control or a dose of a peptide daily for nine days. […] The peptide of SEQ ID NO: 9 was administered at doses of 9 and 25 nmol/kg. Cumulative body weight change (grams) was measured each day of the study except on day 3. Results are shown in FIG. 1 and are expressed as mean±SEM.

hGCGR/hGLP1R (hTone) (human GCGR)	Compound	weight loss, percent relative to vehicle ([1]; 9 nmol/kg daily)	change in ambient glucose compared to vehicle ([2]; 9 nmol/kg)	body weight loss [3] [grams]	further results
1.02	CCCCCCCCCCCCCCCC(=O)N[C@@H](CCC(=O)N[C@@H](CCC(=O)NCCCC[C@H](NC(=O)[C@H](CC(=O)O)NC(=O)[C@H](CO)NC(=O)[C@@H](NC(=O)C(NC(=O)[C@@H](NC(=O)CNC(=O)[C@H](CCC(N)=O)NC(=O)[C@@H](CO)NC(=O)[C@@H](N)Cc1c[nH]cn1)[C@@H](C)O)C(O)c1ccccc1)[C@@H](C)O)C(=O)N[C@@H](CO)C(=O)N[C@@H](CCCCN)C(=O)N[C@@H](Cc1ccc(O)cc1)C(=O)N[C@@H](CC(C)C)C(=O)N[C@@H](CC(=O)O)C(=O)N[C@@H](CCC(=O)O)C(=O)N[C@@H](CCCNC(=N)N)C(=O)N[C@@H](C)C(=O)N[C@@H](C)C(=O)N[C@@H](CCC(N)=O)C(=O)N[C@@H](CC(=O)O)C(=O)N[C@@H](Cc1ccccc1)C(=O)N[C@H](C(=O)N[C@@H](CCC(N)=O)C(=O)N[C@@H](Cc1c[nH]c2ccccc12)C(=O)N[C@@H](CC(C)C)C(=O)N[C@@H](CC(C)C)C(=O)N[C@@H](CC(=O)O)C(=O)N[C@H](C(N)=O)[C@@H](C)O)C(C)C)C(=O)O)C(=O)O (stereo partly drawn) [compound 19] (H-H[dS]QGT[X1]TSDK([γGlu-γGlu-Palmitoyl])SKYLDERAAQDFVQWLLDT-NH2; N-terminus assumed)				EC50 (human GCGR): 1.04 nM; EC50 (human GLP-1R): 1.02 nM
	CCCCCCCCCCCCCCCC(=O)N[C@@H](CCC(=O)N[C@@H](CCC(=O)NCCCC[C@H](NC(=O)[C@H](CC(=O)O)NC(=O)[C@H](CO)NC(=O)[C@@H](NC(=O)[C@H](Cc1ccccc1)NC(=O)[C@@H](NC(=O)CNC(=O)[C@H](CCC(N)=O)NC(=O)[C@@H](CO)NC(=O)[C@@H](N)Cc1c[nH]cn1)[C@@H](C)O)[C@@H](C)O)C(=O)N[C@@H](CO)C(=O)N[C@@H](CCCCN)C(=O)N[C@@H](Cc1ccc(O)cc1)C(=O)N[C@@H](CC(C)C)C(=O)N[C@@H](CC(=O)O)C(=O)N[C@H](C(=O)N[C@@H](CCCNC(=N)N)C(=O)N[C@@H](C)C(=O)N[C@@H](C)C(=O)N[C@@H](CCC(N)=O)C(=O)N[C@@H](CC(=O)O)C(=O)N[C@@H](Cc1ccccc1)C(=O)N[C@H](C(=O)N[C@@H](CCC(N)=O)C(=O)N[C@@H](Cc1c[nH]c2ccccc12)C(=O)N[C@@H](CC(C)C)C(=O)N[C@@H](CC(C)C)C(=O)N[C@@H](CC(=O)O)C(=O)N[C@H](C(N)=O)[C@@H](C)O)C(C)C)C(C)C)C(=O)O)C(=O)O [SEQ ID NO: 8]	approximately 17%	-72 mg/dL	8	weight loss, percent relative to vehicle ([1]; 15 nmol/kg daily): approximately 25%
	HsQGTFTSDK(γEγEC16)SKYLDVRRAQDFVQWLLDT-NH2 (H[dS]QGTFTSDK([γGlu-γGlu-C16])SKYLDVRRAQDFVQWLLDT-NH2; N-terminus assumed; SMILES CCCCCCCCCCCCCCCC(=O)N[C@@H](CCC(=O)N[C@@H](CCC(=O)NCCCC[C@H](NC(=O)[C@H](CC(=O)O)NC(=O)[C@H](CO)NC(=O)[C@@H](NC(=O)[C@H](Cc1ccccc1)NC(=O)[C@@H](NC(=O)CNC(=O)[C@H](CCC(N)=O)NC(=O)[C@@H](CO)NC(=O)[C@@H](N)Cc1c[nH]cn1)[C@@H](C)O)[C@@H](C)O)C(=O)N[C@@H](CO)C(=O)N[C@@H](CCCCN)C(=O)N[C@@H](Cc1ccc(O)cc1)C(=O)N[C@@H](CC(C)C)C(=O)N[C@@H](CC(=O)O)C(=O)N[C@H](C(=O)N[C@@H](CCCNC(=N)N)C(=O)N[C@@H](CCCNC(=N)N)C(=O)N[C@@H](C)C(=O)N[C@@H](CCC(N)=O)C(=O)N[C@@H](CC(=O)O)C(=O)N[C@@H](Cc1ccccc1)C(=O)N[C@H](C(=O)N[C@@H](CCC(N)=O)C(=O)N[C@@H](Cc1c[nH]c2ccccc12)C(=O)N[C@@H](CC(C)C)C(=O)N[C@@H](CC(C)C)C(=O)N[C@@H](CC(=O)O)C(=O)N[C@H](C(N)=O)[C@@H](C)O)C(C)C)C(C)C)C(=O)O)C(=O)O) [SEQ ID NO: 7]	approximately 5%	did not exhibit significant changes in ambient glucose	~3	
	CCCCCCCCCCCCCCCC(=O)N[C@@H](CCC(=O)NCCCC[C@H](NC(=O)[C@H](CC(=O)O)NC(=O)[C@H](CO)NC(=O)[C@@H](NC(=O)[C@H](Cc1ccccc1)NC(=O)[C@@H](NC(=O)CNC(=O)[C@H](CCC(N)=O)NC(=O)[C@@H](CO)NC(=O)[C@@H](N)Cc1c[nH]cn1)[C@@H](C)O)[C@@H](C)O)C(=O)N[C@@H](CO)C(=O)N[C@@H](CCCCN)C(=O)N[C@@H](Cc1ccc(O)cc1)C(=O)N[C@@H](CC(C)C)C(=O)N[C@@H](CC(=O)O)C(=O)N[C@@H](C)C(=O)N[C@@H](CCCNC(=N)N)C(=O)N[C@@H](C)C(=O)N[C@@H](C)C(=O)N[C@@H](CCC(N)=O)C(=O)N[C@@H](CC(=O)O)C(=O)N[C@@H](Cc1ccccc1)C(=O)N[C@H](C(=O)N[C@@H](CCC(N)=O)C(=O)N[C@@H](Cc1c[nH]c2ccccc12)C(=O)N[C@@H](CC(C)C)C(=O)N[C@@H](CC(C)C)C(=O)N[C@@H](CC(=O)O)C(=O)N[C@H](C(N)=O)[C@@H](C)O)C(C)C)C(=O)O [SEQ ID NO: 6]	approximately 20%		10.5	decrease in ambient glucose compared to vehicle ([2]; 9 nmol/kg, day 7 of dosing): -60 mg/dL
	CCCCCCCCCCCCCCCC(=O)N[C@@H](CCC(=O)N[C@@H](CCC(=O)NCCCC[C@H](NC(=O)[C@H](CC(=O)O)NC(=O)[C@H](CO)NC(=O)[C@@H](NC(=O)[C@H](Cc1ccccc1)NC(=O)[C@@H](NC(=O)CNC(=O)[C@@H](NC(=O)C(C)(C)NC(=O)[C@@H](N)Cc1c[nH]cn1)C(C)C)[C@@H](C)O)[C@@H](C)O)C(=O)N[C@@H](CO)C(=O)N[C@@H](CCCCN)C(=O)N[C@@H](Cc1ccc(O)cc1)C(=O)N[C@@H](CC(C)C)C(=O)N[C@@H](CC(=O)O)C(=O)NC(C)(C)C(=O)N[C@@H](CCCNC(=N)N)C(=O)N[C@@H](C)C(=O)N[C@@H](C)C(=O)N[C@@H](CCC(N)=O)C(=O)N[C@@H](CC(=O)O)C(=O)N[C@@H](Cc1ccccc1)C(=O)N[C@H](C(=O)N[C@@H](CCC(N)=O)C(=O)N[C@@H](Cc1c[nH]c2ccccc12)C(=O)N[C@@H](CC(C)C)C(=O)N[C@@H](CCCC)C(=O)N[C@@H](CC(=O)O)C(=O)N[C@H](C(N)=O)[C@@H](C)O)C(C)C)C(=O)O)C(=O)O [SEQ ID NO: 9]	approximately 5%	did not exhibit significant changes in ambient glucose	~3	decrease in ambient glucose compared to vehicle ([2]; 25 nmol/kg, second day of dosing): -75 mg/dL
0.93	CCCCCCCCCCCCCCCC(=O)N[C@@H](CCC(=O)N[C@@H](CCC(=O)NCCCC[C@H](NC(=O)[C@H](CC(=O)O)NC(=O)[C@H](CO)NC(=O)[C@@H](NC(=O)[C@H](Cc1ccc(F)cc1)NC(=O)[C@@H](NC(=O)CNC(=O)[C@H](CCC(N)=O)NC(=O)[C@@H](CO)NC(=O)[C@@H](N)Cc1c[nH]cn1)[C@@H](C)O)[C@@H](C)O)C(=O)N[C@@H](CO)C(=O)N[C@@H](CCCCN)C(=O)N[C@@H](Cc1ccc(O)cc1)C(=O)N[C@@H](CC(C)C)C(=O)N[C@@H](CC(=O)O)C(=O)N[C@@H](CCC(=O)O)C(=O)N[C@@H](CCCNC(=N)N)C(=O)N[C@@H](C)C(=O)N[C@@H](C)C(=O)N[C@@H](CCC(N)=O)C(=O)N[C@@H](CC(=O)O)C(=O)N[C@@H](Cc1ccccc1)C(=O)N[C@H](C(=O)N[C@@H](CCC(N)=O)C(=O)N[C@@H](Cc1c[nH]c2ccccc12)C(=O)N[C@@H](CC(C)C)C(=O)N[C@@H](CC(C)C)C(=O)N[C@@H](CC(=O)O)C(=O)N[C@H](C(N)=O)[C@@H](C)O)C(C)C)C(=O)O)C(=O)O [compound 14]				EC50 (human GCGR): 0.05 nM; EC50 (human GLP-1R): 0.06 nM

Compound	hGCGR/hGLP1R (hTone) (human GCGR)	weight loss, percent relative to vehicle ([1]; 9 nmol/kg daily)	change in ambient glucose compared to vehicle ([2]; 9 nmol/kg)	body weight loss [3] [grams]	further results
CCCCCCCCCCCCCCCC(=O)N[C@@H](CCC(=O)N[C@@H](CCC(=O)NCCCC[C@H](NC(=O)[C@H](CC(=O)O)NC(=O)[C@H](CO)NC(=O)[C@@H](NC(=O)[C@H](Cc1ccccc1)NC(=O)[C@@H](NC(=O)CNC(=O)[C@H](CCC(N)=O)NC(=O)[C@H](C)NC(=O)[C@H](Cc1c[nH]cn1)NC(C)=O)[C@@H](C)O)[C@@H](C)O)C(=O)N[C@@H](CO)C(=O)N[C@@H](CCCCN)C(=O)N[C@@H](Cc1ccc(O)cc1)C(=O)N[C@@H](CC(C)C)C(=O)N[C@@H](CC(=O)O)C(=O)N[C@@H](CCC(=O)O)C(=O)N[C@@H](CCCNC(=N)N)C(=O)N[C@@H](C)C(=O)N[C@@H](C)C(=O)N[C@@H](CCC(N)=O)C(=O)N[C@@H](CC(=O)O)C(=O)N[C@@H](Cc1ccccc1)C(=O)N[C@H](C(=O)N[C@@H](CCC(N)=O)C(=O)N[C@@H](Cc1c[nH]c2ccccc12)C(=O)N[C@@H](CC(C)C)C(=O)N[C@@H](CC(C)C)C(=O)N[C@@H](CC(=O)O)C(=O)N[C@H](C(N)=O)[C@@H](C)O)C(C)C)C(=O)O)C(=O)O [compound 12]	1.00				
